In patent US20150307461A1, “ANTIVIRAL COMPOUNDS” (priority 2012, published 2015):

Tests used:
Experiment in all cases: microbe, parasite or virus in culture
[1] = test system: Pseudotyped HCV GT1b particles (HCVpp); type: cell-based, HCV GT1b Con1 strain; settings: Hepatitis C virus, 72 h, read-out: HCVpp GT-1b (EC50, μM)
[2] = test system: pseudotyped VSV G particles (VSVpp); type: cell-based; settings: Vesicular stomatitis virus, 72 h, read-out: VSVpp (EC50, μM)
[3] = test system: Pseudotyped HCV GT1a particles (HCVpp); type: cell-based, HCV GT1a H77 strain; settings: Hepatitis C virus, 72 h, read-out: HCVpp GT-1a (EC50, μM)

| SMILES | EC50 [1] [µM] | EC50 [2] [µM] | EC50 [3] [µM] |
| --- | --- | --- | --- |
| Nc1nc(Nc2cc(Cl)c(S(=O)(=O)N3CCOCC3)c(Cl)c2)n[nH]1 [Compound I-44, N3-(3,5-dichloro-4-(morpholinosulfonyl)phenyl)-1H-1,2,4-triazole-3,5-diamine] | 0.545 | 100 |  |
| N#Cc1c(F)cc(Nc2nc(N)n[nH]2)cc1F [Compound I-69, 4-(5-Amino-2H-[1,2,4]triazol-3-ylamino)-2-difluoro-benzonitrile] | 0.561 | 100 |  |
| N#Cc1ccc(Nc2n[nH]c(N)n2)cc1S(F)(F)(F)(F)F [Compound I-85, 4-(5-Amino-1H-[1,2,4]triazol-3-ylamino)-2-pentafluorosulfur-benzonitrile] | 0.287 | > 10 |  |
| Nc1nc(Nc2cc(F)c(Br)c(Cl)c2)n[nH]1 [Compound I-5, N^3-(4-Bromo-3-chloro-5-fluoro-phenyl)-1H-[1,2,4]triazole-3,5-diamine] | 0.536 | 45.5 |  |
| Nc1nc(Nc2ccc(Br)c(S(F)(F)(F)(F)F)c2)n[nH]1 [Compound I-81, N*3*-(4-Bromo-3-pentafluorosulfur-phenyl)-1H-[1,2,4]triazole-3,5-diamine] | 0.527 | 34 |  |
| CS(=O)(=O)c1cccc(NC(=O)c2c(Cl)cc(Nc3n[nH]c(N)n3)cc2Cl)c1 [Compound I-66, 4-(5-Amino-1H-[1,2,4]triazol-3-ylamino)-2,6-dichloro-N-(3-methanesulfonyl-phenyl)-benzamide] | 4.99 | 100 |  |
| COC(=O)c1c(Cl)cc(Nc2n[nH]c(N)n2)cc1Cl [Compound I-63, 4-(5-Amino-1H-[1,2,4]triazol-3-ylamino)-2,6-dichloro-benzoic acid methyl ester] | 1.74 | 100 |  |
| Nc1nc(Nc2cc(F)cc(Cl)c2)n[nH]1 [Compound I-61, N^3-(3-Chloro-5-fluoro-phenyl)-1H-[1,2,4]triazole-3,5-diamine] | 0.331 | > 10 |  |
| Nc1nc(Nc2cc(Cl)c(C(=O)N3CCCC3)c(Cl)c2)n[nH]1 [Compound I-65, [4-(5-Amino-1H-[1,2,4]triazol-3-ylamino)-2,6-dichloro-N-phenyl]-pyrrolidin-1-yl-methanone] | 3.67 | 100 |  |
| N#CCc1c(Cl)cc(Nc2n[nH]c(N)n2)cc1C(F)(F)F [Compound I-84, 2-(4-(5-amino-1H-1,2,4-triazol-3-ylamino)-2-chloro-6-(trifluoromethyl)phenyl)acetonitrile] | 0.628 | 42.1 |  |
| Nc1n[nH]c(Nc2cc(F)c(Br)c(F)c2)n1 [Compound I-46, N^5-(4-Bromo-3,5-difluoro-phenyl)-1H-[1,2,4]triazole-3,5-diamine] | 1.18 | 100 |  |
| N#Cc1c(NN)cc(Nc2n[nH]c(N)n2)cc1S(F)(F)(F)(F)F [Compound I-87, 4-(5-Amino-1H-[1,2,4]triazol-3-ylamino)-2-hydrazino-6-pentafluorosulfur-benzonitrile] | 1.65 | > 10 |  |
| Nc1nc(Nc2cc(Br)cc(S(F)(F)(F)(F)F)c2)n[nH]1 [Compound I-82, N*3*-(3-Bromo-5-pentafluorosulfur-phenyl)-1H-[1,2,4]triazole-3,5-diamine] | 0.918 | 57.5 |  |
| Nc1nc(Nc2cccc(S(F)(F)(F)(F)F)c2)n(C2CCCCC2)n1 [Compound I-72, Cyclohexyl-N*5*-(3-pentafluorosulfur-phenyl)-1H-[1,2,4]triazole-3,5-diamine] |  | 68.3 | 36.1 |
| Nc1nc(Nc2cccc(Cl)c2Cl)n[nH]1 [Compound I-49, N^3-(2,3-Dichloro-phenyl)-1H-[1,2,4]triazole-3,5-diamine] |  | 100 | 100 |
| N#Cc1ccc(Nc2n[nH]c(N)n2)cc1 [Compound I-47, 4-(5-Amino-1H-[1,2,4]triazol-3-ylamino)-benzonitrile] |  | 100 | 19.6 |
